Assay results as given in patent US10548898B2, “Quinazoline compounds” (Gilead Sciences, Inc., priority 2014, dated 2020).
Like-named read-outs stand apart in the source and are kept apart here.

Legend:
Format in all cases: cell-based
[1] = system: HIV-1 reverse transcriptase mutant K103N; assay: High throughput cytopathic effect assay in MT-4 cells, K103N mutant; conditions: for EC50: Human immunodeficiency virus 1, MT4, 120 h, read-out: MT4 EC50 (nM) against K103N; for FC against mutant K103N: fold change of MT4 EC50 versus w.t. assay 2
From the text: (§1) Compounds were screened in a miniaturized, high throughput cytopathic effect assay for activity against HIV-1 HBX2 (wild type) and HIV-1 reverse transcriptase mutants K103N and Y181C. In Tables 1 and 2 below. “w.t.” refers to results of the tested compounds run with the wildtype 1 and “w.t, assay 2” refers results of the tested compounds run with the wildtype on the same day as the testing of the compounds with the mutants. Thus, “w.t, assay 2” was run under the same conditions as the testing of the compounds with the mutants and provides a direct comparison with the results from the testing with the mutants.
(§2) Ten-point serial dilutions of compounds with half-log step size were generated in DMSO. AZT ([…]) was used as the positive control and DMSO as the negative control. The Echo acoustic dispenser was used to deliver 200 nL of serially diluted compound into sterile 384 well tissue culture assay plates. Two million MT-4 cells were incubated with each of the 3 viruses at MOI of 0.0005 in separate 1 mL infection tubes for 1 hour at 37° C. The cells were diluted in cell culture medium (RPMI+10% FBS) to 50.000 cells/mL. The infected cells were added to 384 well assay plates containing serially dilute compounds. Assay plates were incubated for 5 days in a humidified incubator set at 37° C. and 5% CO2. To measure the cytopathic effect of HIV, 40 μL Cell TiterGlo was added to each well and the resulting luminescence signal is read with the Envision plate reader (Perkin Elmer). Data were normalized to positive and negative controls in each plate and expressed as % CPE Protection. EC50 values were defined as the compound concentration that caused a 50% decrease in luminescence signal, and were calculated by non-linear regression using Pipeline Pilot software by applying a four parameter fit equation (Accelrys, San Diego, Calif.).

[2] = system: HIV-1 reverse transcriptase mutant Y181C; assay: High throughput cytopathic effect assay in MT-4 cells, Y181C mutant; conditions: for EC50: Human immunodeficiency virus 1, MT4, 120 h, read-out: MT4 EC50 (nM) against Y181C; for FC against mutant Y181C: fold change of MT4 EC50 versus w.t. assay 2
From the text: as §1, §2

HIV-1 HBX2 (wild type) = assay: High throughput cytopathic effect assay in MT-4 cells, wild type HIV-1
From the text: as §1, §2

hERG channels = target: T1, hERG channels (Homo sapiens, UniProt Q12809); assay: hERG assay, whole cell recordings in CHO cell line stably expressing hERG channels; conditions: CHO cells, whole cell patch clamp; greater than values indicate the maximum achievable concentration in the assay
T1 construct: host or cells: CHO cell line stably expressing hERG
T1 sequence (Q12809 whole entry): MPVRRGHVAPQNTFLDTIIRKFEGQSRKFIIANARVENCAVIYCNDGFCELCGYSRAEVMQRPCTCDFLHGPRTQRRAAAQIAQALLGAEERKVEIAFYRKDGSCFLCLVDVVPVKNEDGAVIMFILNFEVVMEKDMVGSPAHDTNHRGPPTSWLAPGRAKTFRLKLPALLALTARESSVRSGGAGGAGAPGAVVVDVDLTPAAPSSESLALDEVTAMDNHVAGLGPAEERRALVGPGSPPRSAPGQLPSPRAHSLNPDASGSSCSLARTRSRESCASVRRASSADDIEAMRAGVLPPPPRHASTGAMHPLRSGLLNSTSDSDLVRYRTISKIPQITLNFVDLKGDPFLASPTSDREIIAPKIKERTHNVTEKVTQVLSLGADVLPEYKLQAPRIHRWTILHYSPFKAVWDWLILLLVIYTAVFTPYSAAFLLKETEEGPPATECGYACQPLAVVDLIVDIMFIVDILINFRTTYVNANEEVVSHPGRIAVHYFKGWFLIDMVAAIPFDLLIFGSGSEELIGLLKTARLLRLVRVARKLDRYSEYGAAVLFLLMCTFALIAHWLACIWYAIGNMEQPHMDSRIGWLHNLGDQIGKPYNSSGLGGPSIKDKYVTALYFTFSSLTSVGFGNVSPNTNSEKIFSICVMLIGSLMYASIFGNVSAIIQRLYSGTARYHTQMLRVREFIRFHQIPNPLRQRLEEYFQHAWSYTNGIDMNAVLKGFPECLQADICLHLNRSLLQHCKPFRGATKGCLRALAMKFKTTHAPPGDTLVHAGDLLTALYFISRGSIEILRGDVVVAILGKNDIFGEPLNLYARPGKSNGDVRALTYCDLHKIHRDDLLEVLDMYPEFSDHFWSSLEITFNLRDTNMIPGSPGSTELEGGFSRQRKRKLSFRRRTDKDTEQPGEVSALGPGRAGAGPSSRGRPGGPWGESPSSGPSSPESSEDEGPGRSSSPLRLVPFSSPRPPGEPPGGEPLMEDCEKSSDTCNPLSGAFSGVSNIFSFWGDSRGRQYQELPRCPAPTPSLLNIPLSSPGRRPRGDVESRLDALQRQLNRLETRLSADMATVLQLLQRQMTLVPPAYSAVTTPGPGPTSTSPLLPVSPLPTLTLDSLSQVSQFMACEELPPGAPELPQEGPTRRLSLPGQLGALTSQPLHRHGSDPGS
Description: AVIVA's CHO cell line, which stably expresses hERG channels, was used for the study. Cells were cultured in DMEM/F12 containing 10% FBS, 1% penicillin/streptomycin and 500 μg/ml G418. Before testing, cells were harvested using Accumax (Innovative Cell Technologies).
External Solution: 2 mM CaCl2; 2 mM MgCl2; 4 mM KCl; 150 mM NaCl; 10 mM Glucose; 10 mM HEPES; 305-315 mOsm; pH 7.4 (adjusted with 5M NaOH.)
Internal Solution: 140 mM KCl; 10 mM MgCl2; 6 mM EGTA; 5 mM HEPES-Na; 5 mM ATP-Mg; 295-305 mOsm; pH 7.25 (adjusted with 1M KOH).
Whole cell recordings were performed using PX 7000A (Axon Instruments) with AVIVA's SealChip™ technology. Cells were voltage clamped at a holding potential of −80 mV. The hERG current was then activated by a depolarizing step to −50 mV for 300 ms. This first step at −50 mV was used as a baseline for measuring peak amplitude of the tail current. Next, a voltage step to +20 mV was applied for 5 s to activate the channels. Finally, a step back to −50 mV for 5 s removed activation and the deactivating tail current was recorded.
All test articles were prepared from 10 mM DMSO stock solutions. Solutions were mixed by sonication for 20 min, followed by vigorous vortexing. Prior to testing, compounds were diluted to test concentrations in glass vials using External Solution. Dilutions were prepared no longer than 20 min prior to use.
After achieving whole cell configuration, cells were monitored for 90 s to assess stability and then washed with External Solution for 66 s. The voltage protocol was then applied to the cells every 12 s throughout the procedure. Only stable cells with recording parameters above threshold were allowed to enter the drug addition procedure.
External solution containing 0.1% DMSO (vehicle) was applied to the cells to establish a baseline. After allowing the current to stabilize for 3 to 10 min, test articles were applied. Test article solutions were added to cells in 4 separate additions. Cells were kept in test solution until effect of the test article reached steady state, to a maximum of 12 min. Next, 1 μM cisapride (positive control) was added. Finally, washout with External Solution was performed until the recovery current reached steady state.
Data analysis was performed using DataXpress (Axon Instruments), Clampfit (Axon Instruments) and Origin (OriginLab Corporation) software. The greater than values in Table 5 indicate the maximum achievable concentration in the assay (e.g., compounds achieving their solubility limit).

[3] = system: HIV-1 recombinant strain encoding reverse transcriptase mutation Y181C; assay: Resistance profile against HIV-1 RT mutants in MT-2 cells, Y181C; conditions: ratio of mean EC50 mutant/WT virus
Description: (§3) Compounds were tested for antiviral activity against a panel of NNRTI resistant viruses. A panel of 8 clonal site-directed mutant viruses representing the major resistance development pathways against rilpivirine (“RPV”), efavirenz (“EFV”), and nevirapine (“NVP”), containing both single and double mutations within HIV-1 reverse transcriptase was employed. Further details and background can be found in Janssen et al. J. Med. Chem, 2005, 48, 1901-1909; Das et al., Proc. Nat. Acad. Sci., 2008, vol., 105, no. 5, 1466-1471; and Kuroda et al., Nature Chemistry, 2013, DOI: 10.1038/NCHEM. 1559. […] HIV-1 recombinant strains encoding reverse transcriptase mutations K103N, Y181C, Y188L, G190A, K103N/Y181C, L1001/Y181C, E138K or E138KIM 184V were constructed by site-directed mutagenesis. Wild-type and mutant viruses were prepared by transfecting infectious proviral HXB2-based cDNA clones into MT-2 cells and harvesting the cell supernatants. MT-2 cells were infected with wild-type and mutant HIV-1 strains at a multiplicity of infection (MOI) of 0.005 by gentle mixing for 3 hours at 37° C. and then added at a density of 16,667 cells per well in 50 μL complete RPMI cell culture media (containing 10% fetal bovine serum (FBS) and 10% penicillin-streptomycin) to 96-well plates containing 50 μL of a 3-fold serial dilution of test compounds in RPMI medium. After 5 days of incubation at 37° C. in a humidified incubator in the presence of 5% CO2. 100 μL of Cell Titer-Glo™ Reagent (Promega Biosciences, Inc., Madison, Wis.) was added to each well and the relative light units (RLU) measured on an Envision plate reader. […] The EC50 value was defined as the compound concentration inducing a 50% decrease in virus replication. Data analysis for the antiviral activity observed in MT-2 cells was performed using XL-Fit™ software (IDBS, Guildford, Surrey, UK) to calculate EC50 from an 8-point dose-response curve using the following equation:
(§4) [formula] where y=virus inhibition, x=drug concentration, M=maximum inhibition, H=minimum inhibition and n=Hill coefficient, EC50 values (mean±standard deviation) were calculated from at least three independent experiments performed in triplicate. The level of resistance was calculated as a ratio of the mean EC50 for each mutant/WT virus. Results are disclosed in FIG. 1 and in Tables 3 and 4 below.

[4] = system: HIV-1 recombinant strain encoding reverse transcriptase mutation Y188L; assay: Resistance profile against HIV-1 RT mutants in MT-2 cells, Y188L; conditions: ratio of mean EC50 mutant/WT virus
Description: as §3, §4

[5] = system: HIV-1 recombinant strain encoding reverse transcriptase mutation G190A; assay: Resistance profile against HIV-1 RT mutants in MT-2 cells, G190A; conditions: ratio of mean EC50 mutant/WT virus
Description: as §3, §4

[6] = system: HIV-1 recombinant strain encoding reverse transcriptase mutation L100I/Y181C; assay: Resistance profile against HIV-1 RT mutants in MT-2 cells, L100I/Y181C; conditions: ratio of mean EC50 mutant/WT virus
Description: as §3, §4

[7] = system: HIV-1 recombinant strain encoding reverse transcriptase mutation K103N; assay: Resistance profile against HIV-1 RT mutants in MT-2 cells, K103N; conditions: ratio of mean EC50 mutant/WT virus
Description: as §3, §4

[8] = system: HIV-1 recombinant strain encoding reverse transcriptase mutation K103N/Y181C; assay: Resistance profile against HIV-1 RT mutants in MT-2 cells, K103N/Y181C; conditions: ratio of mean EC50 mutant/WT virus
Description: as §3, §4

[9] = Human immunodeficiency virus 1, MT4, read-out: MT4 EC50 (nM) against w.t. assay 2
[10] = Human immunodeficiency virus 1, MT4, 120 h, MT-4 cells, 5 days, cytopathic effect, Cell TiterGlo, read-out: MT4 EC50 (nM) against w.t.

| SMILES | EC50 [1] | FC against mutant K103N [1] | EC50 [2] | FC against mutant Y181C [2] | EC50 (HIV-1 HBX2 (wild type); Human immunodeficiency virus 1, MT4, 120 h, read-out: MT4 EC50 (nM) against w.t.) | EC50 (HIV-1 HBX2 (wild type); [9]) | hERG (hERG channels) | Biology resistance panel-low throughput fold change (FC) Y181C [3] | Biology resistance panel-low throughput fold change (FC) Y188L [4] | Biology resistance panel-low throughput fold change (FC) G190A [5] | Biology resistance panel-low throughput fold change (FC) L100I/Y181C [6] | EC50 (HIV-1 HBX2 (wild type); [10]) | Biology resistance panel-low throughput fold change (FC) K103N [7] | Biology resistance panel-low throughput fold change (FC) K103N/Y181C [8] |
| --- | --- | --- | --- | --- | --- | --- | --- | --- | --- | --- | --- | --- | --- | --- |
| Cc1cc(/C=C/C#N)cc(C)c1-c1cccc2c(N)nc(Nc3cnc(C#N)cn3)nc12 [Compound 12, (E)-5-((4-Amino-8-(4-(2-cyanovinyl)-2,6-dimethylphenyl)quinazolin-2-yl)amino)pyrazine-2-carbonitrile] | 1.7 nM | 0.9 | 12.5 nM | 6.9 | 1.8 nM | 1.8 nM | >3 µM |  |  |  |  |  |  |  |
| Cc1ccnc2c1NC(=O)c1cccnc1N2C1CC1 [Nevirapine, reference compound] |  |  |  |  |  |  |  | >229 | >229 | 183.0 | >229 | 65 nM | 87.0 |  |
| O=C1Nc2ccc(Cl)cc2[C@@](C#CC2CC2)(C(F)(F)F)O1 [Efavirenz, reference compound] | 46.4 nM | 28.9 | 3.8 nM | 2.3 |  | 1.6 nM |  | 3.6 | 132.5 | 14.8 | >200 | 1.3 nM | 48.1 | 83.5 |
| Cc1cc(/C=C/C#N)cc(C)c1-c1cccc2cnc(Nc3ccc(C#N)cn3)nc12 [Compound 13, (E)-6-((8-(4-(2-Cyanovinyl)-2,6-dimethylphenyl)quinazolin-2-yl)amino)nicotinonitrile] | 5.9 nM | 1.4 | 27.4 nM | 6.4 |  | 4.3 nM | 1.3 µM |  |  |  |  | 3.2 nM |  |  |
| Cc1cc(/C=C/C#N)cc(C)c1-c1cccc2c(N)nc(Nc3ccc(C#N)nn3)nc12 [Compound 11, (E)-6-((4-Amino-8-(4-(2-cyanovinyl)-2,6-dimethylphenyl)quinazolin-2-yl)amino)pyridazine-3-carbonitrile] | 5.2 nM | 1.2 | 126 nM | 29.8 |  | 4.2 nM | >3 µM | 154.0 | 161.0 |  | 85.0 | 4.7 nM | 2.1 | 157.0 |
| Cc1cc(/C=C/C#N)cc(C)c1-c1cccc2c(N)nc(Nc3ccc(C#N)cn3)nc12 [Compound 10, (E)-6-((4-Amino-8-(4-(2-cyanovinyl)-2,6-dimethylphenyl)quinazolin-2-yl)amino)nicotinonitrile] | 2.9 nM | 1.0 | 29.3 nM | 9.8 |  | 3 nM | >3 µM | 11.9 | 53.6 |  | 3.8 | 2.8 nM | 0.9 | 19.9 |
| Cc1cc(/C=C/C#N)cc(C)c1-c1cccc2c(N)nc(Nc3ccc(C#N)nc3)nc12 [Compound 9, (E)-5-((4-Amino-8-(4-(2-cyanovinyl)-2,6-dimethylphenyl)quinazolin-2-yl)amino)picolinonitrile] | 3.5 nM | 1.1 | 10.8 nM | 3.4 |  | 3.2 nM | >3 µM | 5.7 | 11.4 |  | 4.0 | 3.4 nM | 1.0 | 14.7 |
